For assay [1], the system named is Her2+ patient-derived breast model "CTG-0033". Put plainly: Patient derived xenograft model of breast cancer, tumor volume efficacy study. The assay is classed as in vivo, mice. The source says:
Female nude (Harlan; nu/nu) between 5-7 weeks were implanted subcutaneously with tumor fragments from the Her2+ patient-derived breast model “CTG-0033” (passage 3, i.e. the model has been serially passaged/grown from the original host 3 times) harvested from host animals. When host tumors reached 1-1.5 cm^3, tumors were harvested for re-implantation into animals to be used for the efficacy study. When the CTG-0033 (passage 4) tumors reached approximately 190 mm^3; animals were randomized by tumor volume into treatment or control groups (n=10) and dosing was initiated on Day 0. […] Tumor volumes were recorded twice per week. […] The other treatments were stopped at Day 75 and tumors were allowed to grow back for over 2 months with mice receiving no treatment.
(In general: In xenograft studies the graft and the host belong to different species.)

Assay [2] deals with broad panel of cancer cell lines. Put plainly: Anti-tumor activity of the single agent in a panel of cancer cell lines. In kind it is cell-based. The protocol: The cell lines were grown in the media recommended by the suppliers in the presence of 100 U/ml penicillinG and 100 μg/ml streptomycin supplied with 10% FCS (PAN, Germany).
Cell growth and treatment were performed in 96-well microtitre plates. Cells harvested from exponential phase cultures by trypsinization were plated in 190 μl of media at optimal seeding densities. The optimal seeding densities for each cell line were determined to ensure exponential growth for the duration of the experiment. All cells growing without anticancer agents were sub-confluent by the end of the treatment as determined by visual inspection. Compound dilutions in DMSO were performed in 96-well rigid PCR plates. Compounds were then diluted […] in RPMI medium. 190 μl of cells, after a 24-hour pre-growth period, were treated by mixing with 10 μl of the compound-containing media (resulting in a final DMSO concentration of 0.1%). The cells were allowed to grow at 37° C. for 72 hours. In addition, all experiments contained a few plates with cells that were processed for measurement immediately after the 24 hours recovery period. These plates contained information about the cell number that existed before treatment, at time zero, and served to calculate the cytotoxicity and/or growth inhibitory effects. […] Measurement of optical density was performed at 560 nm on a Victor 2 plate reader (Perkin Elmer, Germany). […]

Regarding `NC(=O)c1cccc2c(N[C@H](CN3CCC3)c3ccc(Cl)c(C(F)(F)F)c3)ncnc12` [Compound A, 4-[(S)-2-Azetidin-1-yl-1-(4-chloro-3-trifluoromethyl-phenyl)-ethylamino]-quinazoline-8-carboxylic acid amide], the tumor regression in assay [1] (Day 55, Compound A 30 mg/kg QD PO, Herceptin 15 mg/kg QW IV in the combination, CTG-0033 tumors in female nude mice) was 50%; in assay [1] (Day 76, after treatment until Day 75), −66%. In assay [1] (after 71 days of regrowth period after cessation of treatment, log rank sum test p<0.05), the “number of treated tumors that grew back” value is on record as 6. The “anti-tumor activity against a broad panel of cancer cell lines” value in assay [2] is on record as “potent anti-tumor activity”. In assay [2] (breast cancer cells, glioblastoma cells, endometrial cancer cells and ovarian carcinoma cells), the “sensitivity of cancer cells to the compound” value is “particularly sensitive”.

The values above are taken from US9980966B2, “Combinations of cancer therapeutics” (Merck Patent GmbH, priority 2014, dated 2018).
